Assay results as given in US9260393B2, “Solid state forms of N-((S)-2,3-dihydroxy-propyl)-3-(2-fluoro-4-iodo-phenylamino)-isonicotinamide” (Merck Patent GmbH, priority 2012, dated 2016).
Values after ≈ are worked out from the molar mass of the structure shown. “Also recorded” adds a separate entry of the source.

Key:
Format in all cases: physicochemical
[1] = API dissolution studies in Flow-Through-Cell system; settings: for dissolution in various buffer systems: 37° C., pH range 1.2 to 6.8; for % dissolved levels after 30 minutes: flow rate 16 mL/min
Experimental: Approximately 10 mg of Forms A1, A2 or B1, respectively, were accurately weighed and blended with 2 g glass beads in a Vortex mixer. The blends were then placed into a powder cell of a Flow-Through-Cell system. Dissolution studies were performed at 37° C. over 30-60 minutes at a constant flow rate of 16 mL/min. Fractions of dissolution medium after passing the Flow-Through-Cell were collected in 1 minute intervals in the first 10 minutes, in 5 minute intervals from 10-30 minutes, and in 15 minute intervals from 30-60 minutes. Dissolved levels of API in each fraction were analysed by HPLC. In dissolution experiments with HCl salt forms at pH 5.0 and pH 6.8, free base fractions which precipitated over time from the initially clear solutions in the collected dissolution fractions were re-dissolved by addition of sulphuric acid prior to HPLC analysis. All experiments were performed as triplicate preparations, with results reported as mean values from triplicates, and error bars as single standard deviations from the triplicates.

[2] = Water Vapour Sorption isotherm (25° C.), DVS-1 System; settings: for water uptake at elevated RH: above 80% RH
Experimental: (§1) The DSC scan of Form A1 was acquired on a Mettler-Toledo DSC 821 with a heating rate of 5 K/min, using nitrogen purge gas at 50 mL/min. […] Form A1 can be classified as non-hygroscopic according to Ph. Eur. Criteria (section 5.11.).
The DSC scan of Form A2 was acquired on a Mettler-Toledo DSC 821 with a heating rate of 5 K/min, using nitrogen purge gas at 50 mL/min. […] Eur. Criteria (section 5.11.). […]
(§2) Eur. criteria. […] Water Vapour Sorption isotherm was acquired on a DVS-1 System from SMS. • Solubility in USP phosphate buffer (pH 7.4) at 37° C. was determined to be approx. 70 μg/mL (see Example 7).

[3] = Solubility determinations of HCl salt forms vs. free base (DI water, 0.1 N HCl); settings: for Solubility / Solid-state Residue (X-Ray-Diffraction): 37° C., 24 hours
Experimental: (§3) All dispersions were agitated at 37° C. for 24 hours. Dispersions were then filtered via the internal filter of the Uniprep vials, and clear filtrates were analysed by HPLC for dissolved quantities of Compound C.
(§4) Solid state residues were analysed by X-Ray-Diffraction for identity with the initially used materials.

[4] = Thermal behaviour (DSC and TGA); settings: heating rate 5 K/min
Experimental: as §1
The DSC scan of Form A2 was acquired on a Mettler-Toledo DSC 821 with a heating rate of 5 K/min, using nitrogen purge gas at 50 mL/min. […] Eur. Criteria (section 5.11.).
DSC scan of Form B1 was acquired on a Mettler-Toledo DSC 821 with a heating rate of 5 K/min, using nitrogen purge gas at 50 mL/min. […] Eur. criteria.
as §2

[5] = Thermodynamic solubility of Forms B1 and B2 in USP Phosphate Buffer (pH 7.4); settings: for Solid-state Residue (X-Ray-Diffraction): #1 + #2
Experimental: Approximately 17 mg of Compound C (free base) crystalline form B1 were dispersed in 2 mL USP Phosphate Buffer (pH 7.4) in Whatman Uniprep Syringless Filter vials in duplicate preparations.
Approximately 17 mg of Compound C (free base) crystalline form B2 were dispersed in 2 mL USP Phosphate Buffer (pH 7.4) in Whatman Uniprep Syringless Filter vials in duplicate preparations.
as §3, §4

[6] = Solvent-mediated competitive slurry conversion experiments with binary phase mixtures of Forms B1+B2; settings: RT and 50° C.
Experimental: Approximately 10 mg of Compound C (free base) crystalline form B1 and approx. 5 mg of Compound C (free base) crystalline form B2 were dispersed in 200-1000 μL solvent in 4-mL glass vials. A PTFE-coated magnetic stirring bar was inserted into the dispersions, and the vials were tightly closed with a screw cap containing a septum. Dispersions were agitated for 5 days on a magnetic stirrer at ambient conditions (˜23° C.) and 50° C., respectively. Dispersions were then vacuum-filtrated over a Whatman paper filter, and collected filter residues were analysed by X-Ray-Diffraction for identity with the initially used materials.

[7] = 0.1N HCl, listed as HCl salt Form A1
[8] = 0.1N HCl, listed as HCl salt Form A2
[9] = relative humidity (RH) range 0-80% RH
[10] = USP phosphate buffer (pH 7.4), 37° C., 24 hours
[11] = 0.1N HCl, listed as Free Base Form B1

## O=C(NC[C@H](O)CO)c1ccncc1Nc1ccc(I)cc1F [Form A1, N—((S)-2,3-Dihydroxy-propyl)-3-(2-fluoro-4-iodo-phenylamino)-isonicotinamide]
[1]
  dissolution kinetics as compared to forms B1 and B2: faster
  dissolution in various buffer systems: rapid and complete dissolution
[1]; pH 1.2, 37° C., listed as HCl Salt Form A1
  % dissolved levels after 30 minutes: 100%
[1]; pH 3.0, 37° C., listed as HCl Salt Form A1
  % dissolved levels after 30 minutes: 100%
[1]; pH 5.0, 37° C., listed as HCl Salt Form A1
  % dissolved levels after 30 minutes: 97%
[1]; pH 6.8, 37° C., listed as HCl Salt Form A1
  % dissolved levels after 30 minutes: 96%
[2]
  hygroscopicity (classification acc. to Ph. Eur. criteria, section 5.11.): non-hygroscopic; also recorded: slightly hygroscopic
[2]; entire relative humidity range 0-98% RH
  water uptake levels: < 0.1 wt %
[3]
  aqueous solubility compared to the free base: significantly improved
  solubility as compared to forms B1 and B2: higher
[3]; 0.1N HCl
  Solubility: approx. 44 mg/mL
[3]; [7]
  Solid-state Residue (X-Ray-Diffraction): HCl salt Form A1
  Solubility: 43600 µg/mL
[3]; DI Water
  Solubility: approx. 2.8 mg/mL
[3]; DI Water, listed as HCl salt Form A1
  Solubility: 2800 µg/mL
[3]; Water
  Solid-state Residue (X-Ray-Diffraction): Free base Form B1
[4]
  thermal stability: sufficient

## O=C(NC[C@H](O)CO)c1ccncc1Nc1ccc(I)cc1F [Form A2, N—((S)-2,3-Dihydroxy-propyl)-3-(2-fluoro-4-iodo-phenylamino)-isonicotinamide]
[1]
  dissolution kinetics as compared to forms B1 and B2: faster
  dissolution in various buffer systems: rapid and complete dissolution
[1]; pH 1.2, 37° C., listed as HCl Salt Form A2
  % dissolved levels after 30 minutes: 99%
[1]; pH 3.0, 37° C., listed as HCl Salt Form A2
  % dissolved levels after 30 minutes: 100%
[1]; pH 5.0, 37° C., listed as HCl Salt Form A2
  % dissolved levels after 30 minutes: 98%
[1]; pH 6.8, 37° C., listed as HCl Salt Form A2
  % dissolved levels after 30 minutes: 96%
[2]
  Water Vapour Sorption behaviour: small water uptake levels only
  hygroscopicity (classification acc. to Ph. Eur. criteria, section 5.11.): slightly hygroscopic
[3]
  aqueous solubility compared to the free base: significantly improved
  solubility as compared to forms B1 and B2: higher
[3]; 0.1N HCl
  Solubility: > 20000 µg/mL
[3]; [8]
  Solid-state Residue (X-Ray-Diffraction): No residue obtained
  Solubility: >20000 µg/mL
[3]; DI Water
  Solubility: approx. 2.5 mg/mL
[3]; DI Water, listed as HCl salt Form A2
  Solubility: 2500 µg/mL
[3]; Water
  Solid-state Residue (X-Ray-Diffraction): Free base Form B1
[4]
  thermal stability: sufficient

## O=C(NC[C@H](O)CO)c1ccncc1Nc1ccc(I)cc1F [Form B1, N—((S)-2,3-Dihydroxy-propyl)-3-(2-fluoro-4-iodo-phenylamino)-isonicotinamide]
[1]; pH 1.2, 37° C., listed as Free base Form B1
  % dissolved levels after 30 minutes: 100%
[1]; pH 3.0, 37° C., listed as Free base Form B1
  % dissolved levels after 30 minutes: 83%
[1]; pH 5.0, 37° C., listed as Free base Form B1
  % dissolved levels after 30 minutes: 57%
[1]; pH 6.8, 37° C., listed as Free base Form B1
  % dissolved levels after 30 minutes: 52%
[2]
  hygroscopicity (classification acc. to Ph. Eur. criteria, section 5.11.): slightly hygroscopic
  water uptake at elevated RH: slightly enhanced
[2]; [9]
  water uptake levels: < 1 wt %
[5]; [10]
  Solid-state Residue (X-Ray-Diffraction): Free Base Form B1
[5]; USP phosphate buffer, 37 °C, pH 7.4, aqueous buffer, thermodynamic from solid, USP phosphate buffer (pH 7.4), 24 hours, duplicate preparations #1, #2
  solubility at 24 h: ~50 µg/mL (≈ 116 µM)
[3]; [11]
  Solid-state Residue (X-Ray-Diffraction): HCI salt Form A1
  Solubility: 17500 µg/mL
[3]; DI Water, listed as Free Base Form B1
  Solubility: <100 µg/mL
[3]; Water
  Solid-state Residue (X-Ray-Diffraction): Free base Form B1
[6]
  thermodynamic stability of free base forms B1 vs B2: thermodynamically more stable free base form; also recorded: thermodynamically stable
[6]; listed as form B1
  thermodynamic stability of free base forms B1 vs B2: more stable form
[4]
  thermal stability: sufficient

## O=C(NC[C@H](O)CO)c1ccncc1Nc1ccc(I)cc1F [Form B2, N—((S)-2,3-Dihydroxy-propyl)-3-(2-fluoro-4-iodo-phenylamino)-isonicotinamide]
[2]
  hygroscopicity (classification acc. to Ph. Eur. criteria, section 5.11.): slightly hygroscopic
  water uptake at elevated RH: slightly enhanced
[2]; [9]
  water uptake levels: ~1 wt %
[5]; PBS buffer pH 7.4, 37° C.
  supersaturated solubility level compared to form B1: increased
[5]; [10]
  Solid-state Residue (X-Ray-Diffraction): Free Base Form B1
[5]; USP phosphate buffer (pH 7.4), 37° C., 24 hours, duplicate preparations #1, #2
  Solubility: approx. 70 μg/mL
[4]
  thermal stability: sufficient
